Measured values: patent EP4467141A1, “PYRAZOLO-QUINOLINES AS SELECTIVE INHIBITORS OF GENOTOXIC STRESS-INDUCED IKK/NF- KB PATHWAYS FOR CANCER THERAPY” (Max-Delbrück-Centrum für Molekulare Medizin in der …, priority 2023, dated 2024)

Test system: U2-OS cells
Test: Cell viability assay
Assay type: cell-based
Details: for cell viability, etoposide co-treatment: 10 µM plus etoposide 50 µM, compared to etoposide alone; for cell viability, compound alone: 10 µM, 6, 24, and 48 hours, compared to DMSO
Protocol: Fig.4: MW01 and MW05 reduce cell viability and increase p53-mediated apoptosis upon etoposide co-treatment. (A) Representative light microscopy images of U2-OS cells following treatment with DMSO, MW01 (10 µM), MW05 (10 µM), or etoposide (50 µM), or co-treatment with MW01 (10 µM) and etoposide (50 µM), or MW05 (10 µM) and etoposide (50 µM) at 24 (left) and 48 hours (right). (B) Quantification of cell viability using CellTiter-Fluor Cell Viability Assay at 6, 24, and 48 hours. Treatment with 0.1% SDS 30 minutes prior to assay was used as positive cell death control. (ns: not significant; *, **, ***: p<0.05, p<0.01, p<0.001). (C) U2-OS cells were treated with DMSO, MW01 (10 µM), MW 05 (10 µM), or etoposide (50 µM), or co-treated with MW01 (10 µM) and etoposide (50 µM), or MW05 (10 µM) and etoposide (50 µM), as indicated. After 24 hours, whole cell lysates were prepared and analyzed by Western blotting for p65 phosphorylation (S536), caspase-3 and cleaved caspase-3 (left panel) and for p53 and γH2AX) (right panel). Vinculin was used as loading control.
1×10^4 cells per well were seeded in a 96-well plate and incubated overnight. The day after, cells were treated with 10 µM of compounds under investigation, 50 µM Etoposide or 10 µM Cisplatin, alone or in combination, for appropriate time points. DMSO and 10% of Triton-X100 were used as negative and positive control respectively. Luminescent staining was performed using CellTiter-Glo Luminescent Cell Viability Assay (Promega, G7570), adding in each well a volume of CellTiter-Glo reagent equal to the volume of cell culture medium present into the well. After 1h of incubation at 37°C, luminescence was read by BioTek Cytation 1 Cell Imaging Multimode Reader (Agilent).
We hypothesized that due to the important function of the DNA double strand-induced IKK-NF-κB pathway as in anti-apoptotic signalling (Stilmann et al., 2009), both MW01 and MW05 should sensitize cells to DNA damaging agents, and therefore support their potential use to potentiate genotoxic therapies. To characterize the effect of MW01 and MW05 on cell viability, we treated cells with both compounds alone or in combination with etoposide to induce DNA lesions (Fig. 4A). […] The same effect in cell viability reduction was confirmed for MW01 and MW05 in co-treatment with cisplatin, another widely used chemotherapeutic drug. To investigate the underlying molecular causes of this phenotype, we looked at markers of NF-κB and p53 activation, DNA damage, and apoptosis after single and co-treatment with MW01, MW05, and etoposide (Fig 4C). MW01 and MW05 abrogated etoposide-stimulated p65 phosphorylation, thereby validating our inhibition of IKK and NF-κB activity. […]

| SMILES | cell viability, etoposide co-treatment | cell viability, compound alone |
| --- | --- | --- |
| COc1ccc2c(c1OC)c(=O)n1c3ccc(O)cc3c3ccnc2c31 [MW01, 5-Hydroxy-10,11-dimethoxy-9H-benzo[c]indolo[3,2,1-ij][1,5]naphthyridin-9-one] | significantly reduced cell viability after 6 hours | slightly reduced cell viability |
| COc1ccc2cc3c(N)nn(C(=O)c4cccc(N(C)C)c4)c3nc2c1 [MW05, (3-Amino-7-methoxypyrazolo[3,4-b]quinolin-1-yl)-[3-(dimethylamino)phenyl]methanone] | significant reduction after 24 hours | slightly reduced cell viability |
